Source: PMC10002517, “Inhibition of Transglutaminase 2 as a Therapeutic Strategy in Celiac Disease—In Vitro Studies in Intestinal Cells and Duodenal Biopsies” (International Journal of Molecular Sciences, 2023)

Legend:
[1] = target: T1, TG2 in Caco-2 cell lysates (Homo sapiens, UniProt P21980); assay: Transglutaminase activity in Caco-2 whole cell lysates (5BP cross-linking); format: biochemical; details: protein lysate treated with 10 mM DTT for 1 h; mean ± SD, n = 3
T1 construct: endogenous in cells; host or cells: Caco-2 (differentiated; IFN-γ-stimulated in the monolayer assay)
T1 sequence (P21980 1-687): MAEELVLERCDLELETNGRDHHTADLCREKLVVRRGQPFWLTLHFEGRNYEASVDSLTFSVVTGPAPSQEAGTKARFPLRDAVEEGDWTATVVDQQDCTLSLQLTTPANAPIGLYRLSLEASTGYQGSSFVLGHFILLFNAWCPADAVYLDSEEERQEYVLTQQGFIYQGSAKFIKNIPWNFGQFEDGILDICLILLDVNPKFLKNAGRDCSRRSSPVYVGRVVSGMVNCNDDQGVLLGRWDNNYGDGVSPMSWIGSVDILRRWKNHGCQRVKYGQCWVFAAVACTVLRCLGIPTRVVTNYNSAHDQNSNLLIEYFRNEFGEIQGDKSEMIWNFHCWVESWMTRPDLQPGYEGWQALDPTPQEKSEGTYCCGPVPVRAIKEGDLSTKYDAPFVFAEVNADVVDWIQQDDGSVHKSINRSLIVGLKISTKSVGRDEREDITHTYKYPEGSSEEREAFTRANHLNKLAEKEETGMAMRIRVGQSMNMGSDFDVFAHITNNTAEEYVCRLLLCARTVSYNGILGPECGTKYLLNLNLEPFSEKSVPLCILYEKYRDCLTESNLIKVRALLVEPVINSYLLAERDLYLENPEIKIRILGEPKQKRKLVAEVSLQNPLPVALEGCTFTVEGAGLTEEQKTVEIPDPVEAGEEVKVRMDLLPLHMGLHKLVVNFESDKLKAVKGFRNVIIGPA
Procedure: The method to investigate TG2 activity from whole cell lysates was adapted from Lin et al.. In brief, 20 µg protein per cavity on the 96-well plate were incubated in 50 mM Tris, 1 mM EDTA, 5 mM calcium chloride (pH 7.5) buffer in the presence of 500 µM 5BP (5-biotinamidopentylamine, Thermo Fisher Scientific, Langenselbold, Germany) for the indicated time. After incubation, the plate was washed three times with PBS + 0.05% Tween. After blocking with 5% BSA in PBS for 1 h, the plate was incubated with 2 µg/mL streptavidin-Alexa Fluor 488 (Thermo Fisher Scientific) in 5% BSA. After 3 washing steps with PBS + 0.05% Tween, fluorometric evaluation was performed using a Clariostar Plus (BMG Labtech) microplate reader (no well scan mode, excitation 488 nm, emission 535 nm, fixed gain: 2000).

[2] = target: T2, TG2 in the intestinal lamina propria (Homo sapiens, UniProt P21980); assay: TG2 activity in cryosections of duodenal biopsies from CD patients (5BP, confocal microscopy); format: biochemical; details: increasing amounts of DTT in the incubation buffer
T2 construct: from tissue; host or cells: duodenal biopsies from celiac disease patients (unfixed 400 nm cryosections, lamina propria)
T2 sequence (P21980 1-687): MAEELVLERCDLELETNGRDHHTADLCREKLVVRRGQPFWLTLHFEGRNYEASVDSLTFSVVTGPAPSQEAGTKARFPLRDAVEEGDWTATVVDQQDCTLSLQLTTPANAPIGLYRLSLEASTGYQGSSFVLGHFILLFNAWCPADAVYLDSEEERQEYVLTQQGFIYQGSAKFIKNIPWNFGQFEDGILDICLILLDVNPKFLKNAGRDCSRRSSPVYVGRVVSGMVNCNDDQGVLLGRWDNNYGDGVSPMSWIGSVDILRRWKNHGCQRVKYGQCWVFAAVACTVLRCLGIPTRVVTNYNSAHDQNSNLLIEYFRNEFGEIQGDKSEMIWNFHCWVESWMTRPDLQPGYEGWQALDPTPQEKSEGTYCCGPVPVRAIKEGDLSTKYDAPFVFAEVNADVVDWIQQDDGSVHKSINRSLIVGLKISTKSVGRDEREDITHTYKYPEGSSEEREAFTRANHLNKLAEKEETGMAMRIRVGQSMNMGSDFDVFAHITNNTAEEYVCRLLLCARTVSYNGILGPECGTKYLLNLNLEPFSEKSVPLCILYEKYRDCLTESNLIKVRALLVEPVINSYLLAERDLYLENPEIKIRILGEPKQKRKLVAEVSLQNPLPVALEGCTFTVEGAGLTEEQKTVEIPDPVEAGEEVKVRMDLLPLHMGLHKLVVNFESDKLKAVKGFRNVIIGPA
Procedure: For immunofluorescence microscopic investigation of transglutaminase activity, only biopsies with minor macroscopic inflammatory signs were used. After endoscopy, biopsies were immediately washed three times in PBS and cryopreserved in polyvinylpyrrolidone sucrose at 4 °C overnight. Biopsies were mounted on specimen holders using Tissue-Tek O.C.T (Sakura Finetek, Staufen im Breisgau, Germany) compound and frozen in liquid nitrogen. For evaluation of transglutaminase activity by the post-embedding procedure, 400 nm cryosections were obtained using a cryo-ultramicrotome (Leica EM UC6, Leica, Wetzlar, Germany) and mounted on class cover slides. After three brief washes with PBS, tissue sections were incubated with the indicated concentrations of the inhibitors for 1 h in tris buffer. Then, the TG2 substrate 5BP was incubated for 1 h at 37 °C in tris buffer containing DTT at the indicated concentration. Slides were washed three times in PBS, fixed in 4% paraformaldehyde (10 min), permeabilized with 0.5% Triton (10 min) and incubated with blocking solution (0.1% cold water fish skin gelatin + 5% BSA + 5% goat serum, 10 min). Afterwards, a rabbit polyclonal antibody directed against human TG2 (Kan5, kindly provided by Dr T. Mothes, Institute of Laboratory Medicine, University Hospital Leipzig, Germany) was applied at 1:200 dilution in blocking solution overnight at 4 °C. After three washing steps (each 5 min) with PBS, Alexa Fluor-555-conjugated secondary antibody (goat-anti-rabbit, 1:200, Thermo Fisher Scientific) and Alexa Fluor-488-conjugated streptavidin (2 µg/mL, Thermo Fisher Scientific) were incubated at room temperature in the dark for 1 h. After three washes with PBS, samples were covered in ProLong Gold antifade mountant (Thermo Fisher Scientific) and sealed with clear nail polish. Sealed slides were stored in the dark at 4 °C until microscopy.
Imaging was done using a confocal laser scanning microscope (TE2000-E, Nikon, Langen, Germany) and a 60× Plan Apo (NA 1.41) immersion oil objective. The detailed acquisition settings and the corresponding macro (Image J [46]) for image processing can be accessed in the Supplementary Materials methods (S1). Five images per patient where quantified. For quantitation, mean fluorescence intensity of TG2 activity (488 nm channel) was normalized to TG2 expression (555 nm channel) within the intestinal lamina propria.

[3] = target: T3, extracellular TG2 on Caco-2 cells (Homo sapiens, UniProt P21980); assay: Extracellular TG2 activity on confluent Caco-2 cell monolayers (5BP cross-linking); format: cell-based; details: 1 mM DTT, 3 h with 5BP, mean ± SD, n = 4
T3 construct: endogenous in cells; host or cells: Caco-2 (differentiated; IFN-γ-stimulated in the monolayer assay)
T3 sequence (P21980 1-687): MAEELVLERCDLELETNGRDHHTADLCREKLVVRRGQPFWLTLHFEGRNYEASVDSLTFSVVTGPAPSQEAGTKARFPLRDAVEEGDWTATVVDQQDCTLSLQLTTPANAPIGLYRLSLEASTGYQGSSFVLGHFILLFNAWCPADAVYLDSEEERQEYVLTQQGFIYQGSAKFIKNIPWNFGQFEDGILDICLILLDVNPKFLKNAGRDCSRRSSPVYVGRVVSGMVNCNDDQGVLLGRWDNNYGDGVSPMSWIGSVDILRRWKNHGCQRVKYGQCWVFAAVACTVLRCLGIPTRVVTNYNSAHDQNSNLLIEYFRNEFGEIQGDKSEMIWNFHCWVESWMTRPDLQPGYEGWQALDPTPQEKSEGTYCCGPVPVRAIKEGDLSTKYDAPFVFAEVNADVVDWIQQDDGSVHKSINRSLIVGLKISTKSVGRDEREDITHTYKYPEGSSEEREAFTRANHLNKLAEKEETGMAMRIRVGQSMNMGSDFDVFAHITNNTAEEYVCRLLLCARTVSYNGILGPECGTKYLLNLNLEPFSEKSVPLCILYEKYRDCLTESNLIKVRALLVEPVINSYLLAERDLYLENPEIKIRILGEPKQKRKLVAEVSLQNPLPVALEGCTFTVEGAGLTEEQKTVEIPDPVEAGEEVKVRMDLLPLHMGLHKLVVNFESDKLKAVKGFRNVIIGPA
Procedure: The method was adapted from Yi et al.. To induce TG2 expression, Caco-2 cells were stimulated with IFN-γ 1000 IU/mL for 48 h. Then, cells were washed three times with warm PBS and incubated with the substrate 5BP for 3 h at 37 °C in 50 mM Tris and 1 mM EDTA (pH 7.5). The substances ERW1041, PX-12 and DTT were added to this solution when indicated. After incubation, cells were washed three times with PBS, fixed with 4% paraformaldehyde for 10 min and blocked with 5% BSA in PBS at 4 °C overnight. Then, cells were incubated at room temperature with streptavidin-Alexa488 (Thermo Scientific, 4 µg/mL) in 5% BSA in the dark for 1 h, followed by three washes with PBS. Fluorometric quantitation was conducted using a FLUOstar Optima microplate reader (BMG Labtech, filter settings: excitation 485 nm, emission 525 nm). Manual gain adjustment was performed, setting the well with the most intense signal as 95%. In all experiments, data were background subtracted against a control without 5BP substrate.

actin rearrangement = details: cited from earlier work
Text: (§1) Even though our results underline the significance of TG2 inhibition, further research is needed to investigate the effects of those inhibitors on gliadin-induced inflammation. In recent studies, these inflammatory mechanisms were only partially mitigated by inhibition of TG2.

[4] = tested on: epithelial infiltration of CD8+ T cells and mucosal damage; details: cited from earlier work
Text: as §1

T-cell stimulation = details: cited from earlier work
Text: as §1

[5] = tested on: gliadin peptide uptake (P31-43 and P57-68); details: cited from earlier work
Text: Since TG2 is expressed on the surface of epithelial cells and plays a role in transcytosis, we aimed to investigate the effect of TG2 inhibitors on the epithelial uptake of gliadin peptides. First, we confirmed the results from Caputo et al. and Zimmermann et al. by showing that the translocation of P31-43, but not of P56-88, was inhibited by the endocytosis inhibitor MBCD [21, 37].

What does the source list for `O[C@@H](CS)[C@@H](O)CS` (racemic) [DTT, dithiothreitol]?
TG2 activity in Caco-2 cell lysates [1]: 395 ± 21%; effect of DTT on TG2 activity in cryopreserved tissue sections [2]: enhanced TG2 activity in the cryopreserved tissue in a dose-dependent manner; TG2-mediated crosslinking ([3]; IFN-γ-stimulated Caco-2 cells, not significant): 123 ± 24%; TG2-mediated crosslinking ([3]; non-stimulated Caco-2 cells): 141 ± 17%

What does the source list for `CC(=O)CSc1n(C)cc[n+]1C.[Cl-]` [R283]?
effect on actin rearrangement after treatment with P31-43 (actin rearrangement): did not prevent actin rearrangement; effect on epithelial infiltration of CD8+ T cells and mucosal damage [4]: did not mitigate

For `NCCSSCCN` [cystamine], which “CD patients in whom T-cell stimulation was prevented” value (T-cell stimulation) is on record?
The value was 50%.

And the “effect on gliadin peptide uptake (P31-43 and P57-68)” value [5]?
Its value is “did not show an effect”.

Which “effect on gliadin peptide uptake (P31-43 and P57-68)” value [5] does the source give for `CN(C)c1cccc2c(S(=O)(=O)NCCCCCN)cccc12` [monodansyl cadaverine] here?
The value was “did not show an effect”.
